Laboratory results reported in US9902728B2, “Pyrrolo and pyrazolopyrimidines as ubiquitin-specific protease 7 inhibitors” (Forma Therapeutics, Inc., priority 2014, dated 2018).

What follows are compounds tested against T1, USP7 (Homo sapiens, UniProt Q93009) (assay: USP7 Assay A (Ubitquin-Rhodamine 110 Assay)). Conditions: USP7 activity in USP7 assay A and B (table does not say which assay per compound); read-out: USP7_IC50.
T1 construct: USP7, construct USP7 (208-1102) 6*His, Viva Biotech; 6xHis (C); purchased Viva Biotech
Format: biochemical
Outline: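 Ub-Rh110 cleavage in 20 mM Tris-HCl pH 8.0 with 1 mM GSH, 0.03% BGG, 0.01% Triton X-100; compound preincubated with enzyme 30 min before substrate.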

T1 sequence (Q93009 208-1102): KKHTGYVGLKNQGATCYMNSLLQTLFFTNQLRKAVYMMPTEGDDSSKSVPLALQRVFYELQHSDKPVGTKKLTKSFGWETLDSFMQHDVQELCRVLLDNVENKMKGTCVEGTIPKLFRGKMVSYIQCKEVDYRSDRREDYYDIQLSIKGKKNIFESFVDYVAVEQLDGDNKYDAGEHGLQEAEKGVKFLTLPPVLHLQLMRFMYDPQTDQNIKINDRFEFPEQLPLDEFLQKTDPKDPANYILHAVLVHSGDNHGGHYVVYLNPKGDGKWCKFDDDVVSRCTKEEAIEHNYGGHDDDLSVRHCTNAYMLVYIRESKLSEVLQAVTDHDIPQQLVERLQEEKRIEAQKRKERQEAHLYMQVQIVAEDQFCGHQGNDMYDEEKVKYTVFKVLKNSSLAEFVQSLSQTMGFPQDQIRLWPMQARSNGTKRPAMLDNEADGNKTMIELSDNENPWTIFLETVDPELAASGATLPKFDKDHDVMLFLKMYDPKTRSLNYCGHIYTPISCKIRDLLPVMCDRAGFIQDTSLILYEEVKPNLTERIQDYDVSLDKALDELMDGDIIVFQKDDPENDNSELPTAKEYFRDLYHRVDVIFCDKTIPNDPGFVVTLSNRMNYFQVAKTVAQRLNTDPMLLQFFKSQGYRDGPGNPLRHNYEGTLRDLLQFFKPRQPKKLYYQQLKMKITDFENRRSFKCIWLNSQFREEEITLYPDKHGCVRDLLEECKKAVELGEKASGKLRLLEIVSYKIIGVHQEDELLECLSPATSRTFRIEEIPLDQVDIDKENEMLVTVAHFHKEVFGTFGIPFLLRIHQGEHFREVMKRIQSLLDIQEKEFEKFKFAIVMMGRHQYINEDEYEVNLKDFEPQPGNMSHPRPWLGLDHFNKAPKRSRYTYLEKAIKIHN

| SMILES | IC50 [nM] |
| --- | --- |
| O=C(c1ccc(-n2ccnc2)cc1)N1CCC(O)(Cn2cnc3c(cnn3-c3ccc(Cl)cc3)c2=O)CC1 [Compound I-1088] | 200 to 1000 |
| O=C(c1ccn(C2CC2)n1)N1CCC(O)(Cn2cnc3c(cnn3-c3ccc(Cl)cc3)c2=O)CC1 [Compound I-1093] | 1000 to 10000 |
| O=C(C1CCC(Nc2ccccc2)CC1)N1CCC(O)(Cn2cnc3c(cnn3-c3ccc(F)cc3)c2=O)CC1 (stereo not drawn) [Compound I-768] | < 200 |
| Cc1nnnn1-c1ccc(C(=O)N2CCC(O)(Cn3cnc4c(cnn4-c4ccc(Cl)cc4)c3=O)CC2)cc1 [Compound I-1089] | 200 to 1000 |
| O=C(c1ccc(F)cc1)N1CCC(O)(Cn2cnc3c(cnn3-c3ccc(N4CCCn5ccnc54)cc3)c2=O)CC1 [Compound I-1170] | 200 to 1000 |
| C=CC(=O)N1[C@@H](C(=O)N2CCC(O)(Cn3cnc4c(cnn4-c4ccc(F)cc4)c3=O)CC2)C[C@@H]1C [Compound I-1003] | 1000 to 10000 |
| CN1CCN(c2cccc(-n3ncc4c(=O)n(CC5(O)CCN(C(=O)C6(C)CC6)CC5)cnc43)c2)CC1 [Compound I-1690] | < 200 |
| O=C(C1CCC(Oc2ccccn2)CC1)N1CCC(O)(Cn2cnc3c(cnn3-c3ccc(CO)cc3)c2=O)CC1 (stereo not drawn) [Compound I-852] | < 200 |
| Cn1cc(Oc2ccc(C(=O)N3CCC(O)(Cn4cnc5c(cnn5-c5ccc(F)cc5)c4=O)CC3)cc2)cn1 [Compound I-562] | 1000 to 10000 |
| Cc1ncc(C(=O)N2CCC(O)(Cn3cnc4c(cnn4-c4ccc(OCC5(F)CCC5)cc4)c3=O)CC2)o1 [Compound I-1135] | < 200 |
| O=C(C[C@H](C(F)F)n1cc(Cl)cn1)N1CCC(O)(Cn2cnc3c(cnn3-c3ccc(F)cc3)c2=O)CC1 [Compound I-733] | 200 to 1000 |
| N#Cc1ccc(OC2CCC(C(=O)N3CCC(O)(Cn4cnc5c(cnn5-c5ccc(F)cc5)c4=O)CC3)CC2)nc1 (stereo not drawn) [Compound I-1014] | 200 to 1000 |
| Cc1ccc(-n2ncc3c(=O)n(CC4(O)CCN(C(=O)C5CC(Oc6ccccn6)C5)CC4)cnc32)cc1 (stereo not drawn) [Compound I-917] | 1000 to 10000 |
| C[C@@]1(O)CCN(c2ccc(-n3ncc4c(=O)n(CC5(O)CCN(C(=O)C[C@H](C(F)F)n6cccn6)CC5)cnc43)cc2)C1 [Compound I-834] | 1000 to 10000 |
| O=C(C1CCC(Oc2ccc(F)cn2)CC1)N1CCC(O)(Cn2cnc3c(cnn3-c3ccc(F)cc3)c2=O)CC1 (stereo not drawn) [Compound I-738] | 200 to 1000 |
| O=C(c1cnc(C2CC2)o1)N1CCC(O)(Cn2cnc3c(cnn3-c3ccc(-n4cc(Cl)cn4)cc3)c2=O)CC1 [Compound I-1686] | < 200 |
| CC1(C(=O)N2CCC(O)(Cn3cnc4c(cnn4-c4ccc(-n5cccn5)cc4)c3=O)CC2)CCC1 [Compound I-782] | < 200 |
| O=C(c1cnc(N2CCOCC2)o1)N1CCC(O)(Cn2cnc3c(cnn3-c3ccc(F)cc3)c2=O)CC1 [Compound I-555] | 200 to 1000 |
| Cn1nccc1NC1CCC(C(=O)N2CCC(O)(Cn3cnc4c(cnn4-c4ccc(F)cc4)c3=O)CC2)CC1 (stereo not drawn) [Compound I-763] | 1000 to 10000 |
| CC1(C(=O)N2CCC(O)(Cn3cnc4c(cnn4-c4ccc(N5CCC6(CC5)CC(F)(F)C6)cc4)c3=O)CC2)CC1 [Compound I-490] | 200 to 1000 |
| O=C(C1CC1)N1CCC(O)(Cn2cnc3c(cnn3-c3ccc(-c4ccc(N5CC[C@@H](O)C5)nc4)cc3)c2=O)CC1 [Compound I-687] | 200 to 1000 |

Same assay, conditions: USP7 assay A and B (table does not say which assay per compound); read-out: USP7_IC50

| SMILES | IC50 [nM] |
| --- | --- |
| O=C(C1CC1)N1CCC(O)(Cn2cnc3c(cnn3-c3ccc(C(F)(F)F)cc3)c2=O)CC1 [Compound I-28] | 1000 to 10000 |
| O=C(C1CC1)N1CCC(O)(Cn2cnc3c(cnn3-c3ccc(NS(=O)(=O)c4cccc(Cl)c4)cc3)c2=O)CC1 [Compound I-1428] | 1000 to 10000 |
| COc1ccc(C(=O)N2CCC(O)(C(C)n3cnc4c(cnn4-c4ccc(OC)cc4)c3=O)CC2)cc1 (stereo not drawn) [Compound I-625] | 1000 to 10000 |
| O=C(C1CC1)N1CCC(O)(Cn2cnc3c(cnn3-c3ccc(NCC4CCOCC4)cc3)c2=O)CC1 [Compound I-1402] | 1000 to 10000 |
| O=C(C[C@@H](C(F)F)n1cccn1)N1CCC(O)(Cn2cnc3c(cnn3-c3ccc(F)cc3)c2=O)CC1 [Compound I-518] | < 200 |
| CN(C)C(=O)Nc1cccc(-n2ncc3c(=O)n(CC4(O)CCN(C(=O)C5CC5)CC4)cnc32)c1 [Compound I-1501] | 1000 to 10000 |
| O=C(c1ccc(C2CC2)cc1)N1CCC(O)(Cn2cnc3c(cnn3-c3ccccc3)c2=O)CC1 [Compound I-156] | 200 to 1000 |
| CNC(=O)N1CCC(O)(Cn2cnc3c(cnn3-c3ccc(-c4ccccc4)cc3)c2=O)CC1 [Compound I-425] | 1000 to 10000 |
| CO[C@@H]1CCN(c2ccc(-n3ncc4c(=O)n(CC5(O)CCN(C(=O)N(C)C)CC5)cnc43)cc2)C1 [Compound I-1138] | 1000 to 10000 |
| Cc1noc(C)c1S(=O)(=O)Nc1ccc(-n2ncc3c(=O)n(CC4(O)CCN(C(=O)C5CC5)CC4)cnc32)cc1 [Compound I-1421] | 1000 to 10000 |
| O=C(C1CC1)N1CCC(O)(Cn2cnc3c(cnn3-c3ccc(NCCc4ccccc4)cc3)c2=O)CC1 [Compound I-1187] | 1000 to 10000 |
| CC(C)OCCNc1cccc(-n2ncc3c(=O)n(CC4(O)CCN(C(=O)C5CC5)CC4)cnc32)c1 [Compound I-1196] | 1000 to 10000 |
| O=C(c1cnc(C2CC2)o1)N1CCC(O)(Cn2cnc3c(cnn3-c3ccc(F)cc3)c2=O)CC1 [Compound I-314] | 200 to 1000 |
| Cc1ccc(-n2ncc3c(=O)n(CC4(O)CCN(C(=O)c5ccc(OC(F)F)cc5)CC4)cnc32)cc1 [Compound I-1058] | 200 to 1000 |
| C[C@H](CC(=O)N1CCC(O)(Cn2cnc3c(cnn3-c3ccc(-c4ccccc4)cc3)c2=O)CC1)n1cccn1 [Compound I-650] | 1000 to 10000 |
| C=CC(=O)N1CC[C@@H]1C(=O)N1CCC(O)(Cn2cnc3c(cnn3-c3ccc(F)cc3)c2=O)CC1 [Compound I-574] | 200 to 1000 |
| CN(C)C(=O)N1CCC(O)(Cn2cnc3c(cnn3-c3ccc(F)c(-c4ccc(F)cc4)c3)c2=O)CC1 [Compound I-475] | 1000 to 10000 |
| C[S+]([O-])c1ccc(-n2ncc3c(=O)n(CC4(O)CCN(C(=O)c5ccc(F)cc5)CC4)cnc32)cc1 (single isomer, unassigned) [Compound I-995, 5-((1-(4-fluorobenzoyl)-4-hydroxypiperidin-4-yl)methyl)-1-(4-(methylsulfinyl)phenyl)-1H-pyrazolo[3,4-d]pyrimidin-4(5H)-one] | 1000 to 10000 |
| O=C(c1cccc(CN2CCCC2)c1)N1CCC(O)(Cn2cnc3c(cnn3-c3ccc(F)cc3)c2=O)CC1 [Compound I-510] | > 10000 |
| O=C(c1ccccc1)N1CCC(O)(Cn2cnc3c(cnn3-c3cccc(CO)c3)c2=O)CC1 [Compound I-281] | 1000 to 10000 |
| CNC(=O)c1ccc(C(=O)N2CCC(O)(Cn3cnc4c(cnn4-c4ccccc4)c3=O)CC2)cc1 [Compound I-184] | 200 to 1000 |
| CS(=N)(=O)c1ccc(-n2ncc3c(=O)n(CC4(O)CCN(C(=O)c5ccc(F)cc5)CC4)cnc32)cc1 (single isomer, unassigned) [Compound I-997, 5-((1-(4-fluorobenzoyl)-4-hydroxypiperidin-4-yl)methyl)-1-(4-(S-methylsulfonimidoyl)phenyl)-1,5-dihydro-4H-pyrazolo[3,4-d]pyrimidin-4-one] | 1000 to 10000 |
| O=C(Nc1ccc(-n2ncc3c(=O)n(CC4(O)CCN(C(=O)C5CC5)CC4)cnc32)cc1)Nc1cccnc1 [Compound I-1448] | 1000 to 10000 |
| O=C(c1ccc(OC(F)F)cc1)N1CCC(O)(Cn2cnc3c(cnn3-c3ccc(CO)cc3)c2=O)CC1 [Compound I-851] | 200 to 1000 |
